How the values were obtained:
[1] = tested on: MelJuSo Ub-YFP reporter cell line; assay: Proteasome inhibition in reporter cell line, YFP accumulation in IncuCyte-FLR; type: cell-based; settings: YFP accumulation measured for 48 hours; for MeJuSo-UB, lowest effective conc.: Table 2
Excerpt: Cell culture. MCF7 cells are maintained in MEM/10% fetal calf serum. HCT-116 p53+/+, p53−/−, Bcl-2+/+, PUMA−/− and BAX−/− cells are maintained in McCoy's 5A modified medium/10% fetal calf serum. The HCT-116 p53+/+, p53−/−, PUMA−/− and BAX−/− are generated as described (25). The HCT-116 Bcl-2+/+ cell line was generated by transfecting parental HCT-116 p53+/+ cells with pCEP4 Bcl-2 (Addgene plasmid 16461) (26) and isolating high expression clones. FaDu and LLC3 cells are maintained in DMEM high glucose medium supplemented with 10% fetal calf serum, Na pyruvate, Hepes and non-essential amino acids. 4T1.12B carcinoma cells are maintained in RPMI medium supplemented with 10% fetal calf serum. The proteasome reporter cell line MelJuSo Ub-YFP was generated as described (12). Cells were maintained in Dulbecco's Modified Eagle's Medium/10% fetal calf serum. […] The retinal epithelial cell line was generated as described (28). All cells are maintained at 37° C. in 5% CO2.
The compound of the invention induces proteasome inhibition. The reporter cell line MelJuSo Ub-YFP, which is engineered to accumulate yellow fluorescent protein (YFP) upon proteasome inhibition (12), was used for compound evaluation. The accumulation of YFP was measured for 48 hours in an IncuCyte-FLR system (Essen Bioscience, Essen, UK), which is an automated fluorescence microscope. Numbers of positive cells per field were used as a measure of proteasome inhibition.

HCT116 = assay: FMCA (Fluorometric Microculture Cytotoxicity Assay) cytotoxicity; type: cell-based; settings: 72 hours of continuous compound exposure
Description: FIGS. 1a to 1o are diagrams illustrating induction of dose-dependent cytotoxicity after 72 hours of continuous compound exposure to the reporter cell line HCT-116 by embodiments of the compound of the invention, as measured FMCA (Fluorometric Microculture Cytotoxicity Assay), as well as absence of such induction by structurally related compounds not comprised by the invention. Treated cells were compared to untreated controls (survival index);
Determination of cell apoptosis and viability. For determination of apoptosis parental HCT-116 p53+/+ cells are treated with the increasing doses of the compound of the invention for 24 h. […] HCT-116 cells are seeded in 96-well microtiter plates at 10,000 cells per well and incubated overnight. Cells are treated with indicated drug for 24 h. At the end of the incubation period, NP40 is added to the tissue culture medium to 0.1% and 25 μl of the content of each well was assayed using the M30-Apoptosense® ELISA as previously described (31). Cell viability is determined by measuring acid phosphatase activity or using the FMCA method (32). For the acid phosphatase activity cells are seeded at 5000 cells per well in 96-well culture plates and incubated for 12 h at 37° C. Compounds are added to the cells in growth media and incubated for 72 h at 37° C. Cells are washed with 200 μl warm PBS. 100 μl of para-nitrophenyl phosphate (pNPP, 2 mg/ml) in Na acetate buffer pH 5 (NaAc 0.1 M, 0.1% Triton-X-100) is added per well. Cells are incubated for 2 h after which reaction was stopped by addition of 1N NaOH. Absorbance is measured at 405 nm. The dose-dependent cytotoxicity of a number of embodiments of the compound of the invention is illustrated in FIGS. 1a-1o.
For the FMCA assay cells are seeded in the drug-prepared 384-well plates using the pipetting robot Precision 2000 (Bio-Tek Instruments Inc., Winooski, Vt.). The plates are incubated for 72 h and then transferred to an integrated HTS SAIGAN Core System consisting of an ORCA robot (Beckman Coulter) with CO2 incubator (Cytomat 2C, Kendro, Sollentuna, Sweden), dispenser module (Multidrop 384, Titertek, Huntsville, Ala.), washer module (ELx 405, Bio-Tek Instruments Inc), delidding station, plate hotels, barcode reader (Beckman Coulter), liquid handler (Biomek 2000, Beckman Coulter) and a multipurpose reader (FLUOstar Optima, BMG Labtech GmbH, Offenburg, Germany) for automated FMCA. Survival index (SI) is defined as the fluorescence of test wells in percentage of controls with blank values subtracted.
FIGS. 3b, 3d, 3f are diagrams illustrating the cytotoxicity of compounds of the invention nos. 1546, 1547, and 1570 with a 7-membered ring moiety in comparison to structurally corresponding compounds not comprised by the invention with a 6-membered ring moiety. Their induction of dose-dependent cytotoxicity was determined after 72 hours of continuous compound exposure to the reporter cell line HCT-116. Treated cells were compared with untreated controls. Cytotoxicity is visualized as survival index (SI) over the range of about 90% SI to about 0% SI in dependence on compound concentration.

COc1ccc(C=C2CN(C)CCC(=Cc3ccc([N+](=O)[O-])cc3)C2=O)cc1 [Compound 1588]
MeJuSo-UB, IncuCyte lowest effective conc. ([1]; Table 1): 1 µM
IC50 (HCT116; Table 1): 3.1 µM

CN1CCC(=Cc2ccc(Cl)cc2)C(=O)C(=Cc2ccc(F)cc2)C1 [Compound 1589]
MeJuSo-UB, IncuCyte lowest effective conc. ([1]; Table 1): 1 µM
IC50 (HCT116; Table 1): 2.5 µM

COc1ccc(C=C2CN(C)CCC(=Cc3ccc(Cl)cc3)C2=O)cc1 [Compound 1590]
MeJuSo-UB, IncuCyte lowest effective conc. ([1]; Table 1): 1 µM
IC50 (HCT116; Table 1): 2 µM

O=C1C(=Cc2ccc([N+](=O)[O-])cc2)CCNCC1=Cc1ccc(Cl)cc1 [Compound 1591]
MeJuSo-UB, IncuCyte lowest effective conc. ([1]; Table 1): 0.5 µM
IC50 (HCT116; Table 1): 0.9 µM

O=C1C(=Cc2ccc(Cl)cc2)CCNCC1=Cc1ccc([N+](=O)[O-])cc1 [Compound 1592]
MeJuSo-UB, IncuCyte lowest effective conc. ([1]; Table 1): 4 µM
IC50 (HCT116; Table 1): 12 µM

CN1CCC(=Cc2ccc([N+](=O)[O-])cc2)C(=O)C(=Cc2ccc(F)cc2)C1 [Compound 1593]
MeJuSo-UB, IncuCyte lowest effective conc. ([1]; Table 1): 1 µM
IC50 (HCT116; Table 1): 2.9 µM

CN1CCC(=Cc2ccc([N+](=O)[O-])cc2)C(=O)C(=Cc2ccc(Cl)cc2)C1 [Compound 1594]
MeJuSo-UB, IncuCyte lowest effective conc. ([1]; Table 1): 1 µM
IC50 (HCT116; Table 1): 2.6 µM

CN1CCC(=Cc2ccc(F)cc2)C(=O)C(=Cc2ccc(Cl)cc2)C1 [Compound 1595]
MeJuSo-UB, IncuCyte lowest effective conc. ([1]; Table 1): 1 µM
IC50 (HCT116; Table 1): 2.3 µM

O=C1C(=Cc2ccc([N+](=O)[O-])cc2)CCNCC1=Cc1ccc(F)cc1 [Compound 1596]
MeJuSo-UB, IncuCyte lowest effective conc. ([1]; Table 1): 2 µM
IC50 (HCT116; Table 1): 2.6 µM

CC(=O)N1CCC(=Cc2ccc([N+](=O)[O-])cc2)C(=O)C(=Cc2ccc(Cl)cc2)C1 [Compound 1597]
MeJuSo-UB, lowest effective conc. [1]: 1 µM
IC50 (HCT116; Table 2): 1.3 µM

CN1CCC(=Cc2ccc(F)c(Cl)c2)C(=O)C(=Cc2ccc(F)c(Cl)c2)C1 [Compound 1608]
MeJuSo-UB, IncuCyte lowest effective conc. ([1]; Table 1): 1 µM
IC50 (HCT116; Table 1): 1.8 µM

CN1CCC(=Cc2ccc(F)c(C(F)(F)F)c2)C(=O)C(=Cc2ccc(F)c(C(F)(F)F)c2)C1 [Compound 1609]
MeJuSo-UB, IncuCyte lowest effective conc. ([1]; Table 1): 1 µM
IC50 (HCT116; Table 1): 1.4 µM

CN1CCC(=Cc2ccc(F)c(F)c2)C(=O)C(=Cc2ccc(F)c(F)c2)C1 [Compound 1610]
MeJuSo-UB, IncuCyte lowest effective conc. ([1]; Table 1): 1 µM
IC50 (HCT116; Table 1): 1.7 µM

O=C1C(=Cc2cc(F)cc(C(F)(F)F)c2)CCNCC1=Cc1cc(F)cc(C(F)(F)F)c1 [Compound 1611]
MeJuSo-UB, IncuCyte lowest effective conc. ([1]; Table 1): 0.5 µM
IC50 (HCT116; Table 1): 1.1 µM

CN1CCC(=Cc2cc(F)cc(C(F)(F)F)c2)C(=O)C(=Cc2cc(F)cc(C(F)(F)F)c2)C1 [Compound 1612]
MeJuSo-UB, IncuCyte lowest effective conc. ([1]; Table 1): 0.25 µM
IC50 (HCT116; Table 1): 0.7 µM

O=C1C(=Cc2ccc([N+](=O)[O-])cc2)CCNCC1=Cc1ccc([N+](=O)[O-])cc1 [Compound 1613]
MeJuSo-UB, IncuCyte lowest effective conc. ([1]; Table 1): 32 µM
IC50 (HCT116; Table 1): 25 µM

CN1CCC(=Cc2ccc([N+](=O)[O-])cc2)C(=O)C(=Cc2ccc([N+](=O)[O-])cc2)C1 [Compound 1614]
MeJuSo-UB, IncuCyte lowest effective conc. ([1]; Table 1): 8 µM
IC50 (HCT116; Table 1): 7.4 µM

CN1CCC(=Cc2ccc(Cl)c(C(F)(F)F)c2)C(=O)C(=Cc2ccc(Cl)c(C(F)(F)F)c2)C1 [Compound 1615]
MeJuSo-UB, IncuCyte lowest effective conc. ([1]; Table 1): 0.5 µM
IC50 (HCT116; Table 1): 0.9 µM

CN1CCC(=Cc2ccc(C(F)(F)F)cc2)C(=O)C(=Cc2ccc(C(F)(F)F)cc2)C1 [Compound 1617]
MeJuSo-UB, IncuCyte lowest effective conc. ([1]; Table 1): 1 µM
IC50 (HCT116; Table 1): 1.6 µM

CN1CCC(=Cc2ccc(F)c(C#N)c2)C(=O)C(=Cc2ccc(F)c(C#N)c2)C1 [Compound 1618]
MeJuSo-UB, IncuCyte lowest effective conc. ([1]; Table 1): 0.5 µM
IC50 (HCT116; Table 1): 1.5 µM

CN1CCC(=Cc2cccc([N+](=O)[O-])c2)C(=O)C(=Cc2cccc([N+](=O)[O-])c2)C1 [Compound 1620]
MeJuSo-UB, IncuCyte lowest effective conc. (μM) ([1]; Table 1): no effect
IC50 (HCT116; Table 1): > 32 µM

CN1CCC(=Cc2ccc(C#N)cc2)C(=O)C(=Cc2ccc(C#N)cc2)C1 [Compound 1621]
MeJuSo-UB, IncuCyte lowest effective conc. ([1]; Table 1): 2 µM
IC50 (HCT116; Table 1): 4.5 µM

O=C1C(=Cc2ccc(F)c(C(F)(F)F)c2)CCNCC1=Cc1ccc(F)c(C(F)(F)F)c1 [Compound 1622]
MeJuSo-UB, IncuCyte lowest effective conc. ([1]; Table 1): 0.5 µM
IC50 (HCT116; Table 1): 0.8 µM

N#Cc1cc(C=C2CCNCC(=Cc3ccc(F)c(C#N)c3)C2=O)ccc1F [Compound 1623]
MeJuSo-UB, IncuCyte lowest effective conc. ([1]; Table 1): 0.5 µM
IC50 (HCT116; Table 1): 1 µM

CN1CCC(=Cc2ccc(C(F)(F)F)c(F)c2)C(=O)C(=Cc2ccc(C(F)(F)F)c(F)c2)C1 [Compound 1624]
MeJuSo-UB, IncuCyte lowest effective conc. ([1]; Table 1): 1 µM
IC50 (HCT116; Table 1): 1.8 µM

N#Cc1ccc(C=C2CCNCC(=Cc3ccc(C#N)cc3)C2=O)cc1 [Compound 1625]
MeJuSo-UB, IncuCyte lowest effective conc. ([1]; Table 1): 0.5 µM
IC50 (HCT116; Table 1): 0.9 µM

O=C1C(=Cc2ccc(C(F)(F)F)c(F)c2)CCNCC1=Cc1ccc(C(F)(F)F)c(F)c1 [Compound 1626]
MeJuSo-UB, IncuCyte lowest effective conc. ([1]; Table 1): 8 µM
IC50 (HCT116; Table 1): 0.8 µM

CC(=O)N1CCC(=Cc2ccc(C(F)(F)F)cc2)C(=O)C(=Cc2ccc(C(F)(F)F)cc2)C1 [Compound 1627]
MeJuSo-UB, lowest effective conc. [1]: 1 µM
IC50 (HCT116; Table 2): 0.7 µM

CC(=O)N1CCC(=Cc2ccc(F)c(F)c2)C(=O)C(=Cc2ccc(F)c(F)c2)C1 [Compound 1628]
MeJuSo-UB, lowest effective conc. [1]: 1 µM
IC50 (HCT116; Table 2): 2.3 µM

CC(=O)N1CCC(=Cc2cc(F)c(F)c(F)c2)C(=O)C(=Cc2cc(F)c(F)c(F)c2)C1 [Compound 1629]
MeJuSo-UB, lowest effective conc. [1]: 1 µM
IC50 (HCT116; Table 2): 0.6 µM

CC(=O)N1CCC(=Cc2ccc(Cl)c(F)c2)C(=O)C(=Cc2ccc(Cl)c(F)c2)C1 [Compound 1630]
MeJuSo-UB, lowest effective conc. [1]: 0.5 µM
IC50 (HCT116; Table 2): 0.9 µM

CC(=O)N1CCC(=Cc2ccc(F)c(Cl)c2)C(=O)C(=Cc2ccc(F)c(Cl)c2)C1 [Compound 1631]
MeJuSo-UB, lowest effective conc. [1]: 32 µM
IC50 (HCT116; Table 2): 1 µM

CC(=O)OCCC(=O)N1CCC(=Cc2ccc(Cl)cc2)C(=O)C(=Cc2ccc(Cl)cc2)C1 [Compound 1633]
MeJuSo-UB, lowest effective conc. [1]: 4 µM
IC50 (HCT116; Table 2): 2.2 µM

O=C1C(=Cc2ccc(Cl)cc2)CCN(C(=O)Cc2ccccc2)CC1=Cc1ccc(Cl)cc1 [Compound 1635]
MeJuSo-UB, lowest effective conc. [1]: 2 µM
IC50 (HCT116; Table 2): 1.4 µM

O=C1C(=Cc2ccc(Cl)cc2)CCN(C(=O)c2cccnc2)CC1=Cc1ccc(Cl)cc1 [Compound 1637]
MeJuSo-UB, lowest effective conc. [1]: 2 µM
IC50 (HCT116; Table 2): 2.1 µM

O=C1C(=Cc2ccc(Cl)cc2)CCN(C(=O)c2cccs2)CC1=Cc1ccc(Cl)cc1 [Compound 1638]
MeJuSo-UB, lowest effective conc. [1]: 2 µM
IC50 (HCT116; Table 2): 2 µM

CCOc1cc(CC(=O)N2CCC(=Cc3ccc(Cl)cc3)C(=O)C(=Cc3ccc(Cl)cc3)C2)ccc1O [Compound 1639]
MeJuSo-UB, lowest effective conc. [1]: 1 µM
IC50 (HCT116; Table 2): 1.2 µM

O=C1C(=Cc2ccc(C(F)(F)F)cc2)CCN(C(=O)Cc2cccnc2)CC1=Cc1ccc(C(F)(F)F)cc1 [Compound 1641]
MeJuSo-UB, lowest effective conc. [1]: 2 µM
IC50 (HCT116; Table 2): 2.7 µM

CC(=O)OCC(=O)N1CC/C(=C\c2ccc(C(F)(F)F)cc2)C(=O)/C(=C/c2ccc(C(F)(F)F)cc2)C1 [Compound 1642]
MeJuSo-UB, lowest effective conc. [1]: 1 µM
IC50 (HCT116; Table 2): 1.2 µM
